Source: patent US20200385371A1 (Propellon Therapeutics Inc., priority 2017, published 2020)

Key:
WDR5 [1] = target: T1, WDR5 (Homo sapiens, UniProt P61964); assay: Surface Plasmon Resonance (SPR) assay; assay type: binding; set-up: Full length WDR5 with an N-terminal His tag and C-terminal AviTag; His tag (N); made in house; host or cells: E. coli; settings: read-out: SPR Kd
In short: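 Full-length biotinylated WDR5 (N-His, C-AviTag, E. coli) captured (~3000 RU) on streptavidin SA chip; Biacore T200. HBS-EP pH 7.4 plus 5% DMSO running buffer, 40 μl/min.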

MV4-11 cells = assay: Cell proliferation assay (ATPlite); assay type: cell-based; settings: Homo sapiens, 120 h; MV4-11 cells, five days; read-out: GI MV411 EC50
Procedure: MV4-11 cells were seeded into a 96-well plate at 1,000 cells/well in 150 μl medium (Alpha-MEM containing 10% FBS, 100 μg/ml Normocin, and 50 μg/ml Gentamycin, Invitrogen). A HP D300 digital dispenser was used to dose cells with DMSO or test compounds across a 10-point range of concentrations (high dose of 10 μM), and cultures were grown in a humidified 5% CO2 incubator at 37° C. After five days, plates were removed from incubator and equilibrated to room temperature. An equal volume of ATPlite assay reagent was added to each well, and samples were processed according to manufacturer's instructions (Perkin Elmer). Luminescent signal was measured using an Envision plate reader equipped with a US-Luminescence detector.

WDR5 [2] = target: T1, WDR5; assay: Fluorescence Polarization (FP) binding assay
In short: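 Displacement of fluorescein-labelled H3 (1-15) (30 nM, with 0.3 μM WDR5) or 9-Ala-FAM (20 nM, with 0.05 μM WDR5) in 80 mM sodium phosphate pH 6.5, 20 mM KCl, 0.008% Triton X-100. FP read at 485/528 nm (H3) or 480/540 nm (9-Ala-FAM); Kdisp from hyperbolic fit, mean of quadruplicates.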

Row | Structure (SMILES) | Kd (WDR5 [1]) [nM] | EC50 (MV4-11 cells) [nM] | IC50 (WDR5 [2]) [nM]
1 | COc1cc(N2CC=C(c3c(F)cc(N4CCN(C)[C@@H](C)C4)c(NC(=O)c4c[nH]c(=O)cc4C(F)F)c3F)CC2)ncn1 [Example 67, (S)-4-(difluoromethyl)-N-(6-(3,4-dimethylpiperazin-1-yl)-2,4-difluoro-3-(1-(6-methoxypyrimidin-4-yl)-1,2,3,6-tetrahydropyridin-4-yl)phenyl)-6-oxo-1,6-dihydropyridine-3-carboxamide] | 0.97 | 101 | 19.7
2 | C[C@@H]1CN(c2ncc(-c3c(F)cc(N4C[C@@H](C)N(C)[C@@H](C)C4)c(NC(=O)c4ccc(F)cc4C(F)F)c3F)cn2)C[C@H](C)O1 [Example 109, 2-(Difluoromethyl)-N-(3-(2-((2S,6R)-2,6-dimethylmorpholino)pyrimidin-5-yl)-2,4-difluoro-6-((3S,5R)-3,4,5-trimethylpiperazin-1-yl)phenyl)-4-fluorobenzamide Formic Acid] | 2.59 | 7.34 | 14.4
3 | C[C@@H]1CN(c2cc(F)c(-c3cnc(N4C[C@H](C)O[C@@H](C)C4)nc3)c(F)c2NC(=O)c2c[nH]c(=O)cc2C(F)F)C[C@H](C)N1C [Example 120, 4-(Difluoromethyl)-N-(3-(2-((2S,6S)-2,6-dimethylmorpholino)pyrimidin-5-yl)-2,4-difluoro-6-((3S,5R)-3,4,5-trimethylpiperazin-1-yl)phenyl)-6-oxo-1,6-dihydropyridine-3-carboxamide] | 1.35 | 2.07 | 12
4 | C[C@H]1CN(c2cc(F)c(C3=CCCN(c4ccnc(C#N)n4)C3)c(F)c2NC(=O)c2c[nH]c(=O)cc2C(F)(F)F)CCN1C [Example 114, (S)—N-(3-(1-(2-cyanopyrimidin-4-yl)-1,2,5,6-tetrahydropyridin-3-yl)-6-(3,4-dimethylpiperazin-1-yl)-2,4-difluorophenyl)-6-oxo-4-(trifluoromethyl)-1,6-dihydropyridine-3-carboxamide] | 2.42 | 36.6 | 15.9
5 | CC(C)[C@H]1CN(c2ncc(-c3c(F)cc(N4C[C@@H](C)N(C)[C@@H](C)C4)c(NC(=O)c4c[nH]c(=O)cc4C(F)(F)F)c3F)cn2)CCO1 [Example 103, N-(2,4-difluoro-3-(2-((S)-2-isopropylmorpholino)pyrimidin-5-yl)-6-((3S,5R)-3,4,5-trimethylpiperazin-1-yl)phenyl)-6-oxo-4-(trifluoromethyl)-1,6-dihydropyridine-3-carboxamide] | 5.01 | 14.7 | 17.7
6 | COc1cnc(N2CC=C(c3c(F)cc(N4C[C@@H](C)N(C)[C@@H](C)C4)c(NC(=O)c4c[nH]c(=O)cc4C(F)(F)F)c3F)CC2)nc1 [Example 137, N-(2,4-difluoro-3-(1-(5-methoxypyrimidin-2-yl)-1,2,3,6-tetrahydropyridin-4-yl)-6-((3S,5R)-3,4,5-trimethylpiperazin-1-yl)phenyl)-6-oxo-4-(trifluoromethyl)-1,6-dihydropyridine-3-carboxamide] | 2.57 | 75.1 | 17
7 | CC(C)[C@@H]1CN(c2ncc(-c3c(F)cc(N4C[C@@H](C)N(C)[C@@H](C)C4)c(NC(=O)c4c[nH]c(=O)cc4C(F)F)c3F)cn2)CCO1 [Example 118, N-(2,4-difluoro-3-(2-((R)-2-isopropylmorpholino)pyrimidin-5-yl)-6-((3S,5R)-3,4,5-trimethylpiperazin-1-yl)phenyl)-4-(difluoromethyl)-6-oxo-1,6-dihydropyridine-3-carboxamide] | 0.95 | 12.2 | 12.2
8 | C[C@@H]1CN(c2ccc(-c3c(F)cc(N4CCN(C)[C@@H](C)C4)c(NC(=O)c4ccc(F)cc4C(F)F)c3F)cn2)CCO1 [Example 177, 2-(Difluoromethyl)-N-(6-((S)-3,4-dimethylpiperazin-1-yl)-2,4-difluoro-3-(6-((R)-2-methylmorpholino)pyridin-3-yl)phenyl)-4-fluorobenzamide] | 1.72 | 101 | 23
9 | C[C@@H]1CN(c2ccc(-c3c(F)cc(N4CCN(C)[C@@H](C)C4)c(NC(=O)c4ccc(F)cc4C(F)F)c3F)cn2)C[C@H](C)O1 [Example 178, 2-(Difluoromethyl)-N-(3-(6-((2S,6R)-2,6-dimethylmorpholino)pyridin-3-yl)-6-((S)-3,4-dimethylpiperazin-1-yl)-2,4-difluorophenyl)-4-fluorobenzamide] | 1.42 | 189 | 19.7
10 | C[C@@H]1CN(c2cc(F)c(C3=CCCN(c4ncc(C#N)s4)C3)c(F)c2NC(=O)c2c[nH]c(=O)cc2C(F)(F)F)C[C@H](C)N1C [Example 149, N-(3-(1-(5-cyanothiazol-2-yl)-1,2,5,6-tetrahydropyridin-3-yl)-2,4-difluoro-6-((3S,5R)-3,4,5-trimethylpiperazin-1-yl)phenyl)-6-oxo-4-(trifluoromethyl)-1,6-dihydropyridine-3-carboxamide] | 1.8 | 106 | 14.6
11 | C[C@@H]1CN(c2ncc(-c3c(F)cc(N4C[C@@H](C)N(C)[C@@H](C)C4)c(NC(=O)c4c[nH]c(=O)cc4C(F)F)c3F)cn2)C[C@H](C)O1 [Example 111, 4-(Difluoromethyl)-N-(3-(2-((2S,6R)-2,6-dimethylmorpholino)pyrimidin-5-yl)-2,4-difluoro-6-((3S,5R)-3,4,5-trimethylpiperazin-1-yl)phenyl)-6-oxo-1,6-dihydropyridine-3-carboxamide] | 1.29 | 9.48 | 14.1
12 | C[C@@H]1CN(c2cc(F)c(-c3cnc(N4C[C@H]5CC[C@@H](C4)O5)nc3)c(F)c2NC(=O)c2c[nH]c(=O)cc2C(F)(F)F)C[C@H](C)N1C [Example 90, N-(3-(2-((R,5S)-8-oxa-3-azabicyclo[3.2.1]octan-3-yl)pyrimidin-5-yl)-2,4-difluoro-6-((3S,5R)-3,4,5-trimethylpiperazin-1-yl)phenyl)-6-oxo-4-(trifluoromethyl)-1,6-dihydropyridine-3-carboxamide] | 0.89 | 29.9 | 15
13 | C[C@H]1CN(c2cc(F)c(C3=CCCN(c4ncccn4)C3)c(F)c2NC(=O)c2c[nH]c(=O)cc2C(F)F)CCN1C [Example 54, (S)-4-(difluoromethyl)-N-(6-(3,4-dimethylpiperazin-1-yl)-2,4-difluoro-3-(1-(pyrimidin-2-yl)-1,2,5,6-tetrahydropyridin-3-yl)phenyl)-6-oxo-1,6-dihydropyridine-3-carboxamide] | 3.83 | 693 | 28.8
14 | C[C@@H]1CN(c2ncc(-c3c(F)cc(N4CCN(C)[C@@H](C)C4)c(NC(=O)c4c[nH]c(=O)cc4C(F)F)c3F)cn2)C[C@H](C)O1 [Example 33, 4-(Difluoromethyl)-N-(3-(2-((2S,6R)-2,6-dimethylmorpholino)pyrimidin-5-yl)-6-((S)-3,4-dimethylpiperazin-1-yl)-2,4-difluorophenyl)-6-oxo-1,6-dihydropyridine-3-carboxamide] | 0.61 | 14.5 | 14.9
15 | C[C@@H]1CN(c2nccc(-c3c(F)cc(N4CCN(C)[C@@H](C)C4)c(NC(=O)c4cn(C)c(=O)cc4C(F)F)c3F)n2)C[C@H](C)O1 [Example 57, 4-(Difluoromethyl)-N-(3-(2-((2S,6R)-2,6-dimethylmorpholino)pyrimidin-4-yl)-6-((S)-3,4-dimethylpiperazin-1-yl)-2,4-difluorophenyl)-1-methyl-6-oxo-1,6-dihydropyridine-3-carboxamide] | 7.63 | 367 | 26.8
16 | C[C@@H]1CN(c2nccc(-c3c(F)cc(N4CCN(C)[C@@H](C)C4)c(NC(=O)c4c[nH]c(=O)cc4C(F)F)c3F)n2)C[C@H](C)O1 [Example 59, 4-(Difluoromethyl)-N-(3-(2-((2S,6R)-2,6-dimethylmorpholino)pyrimidin-4-yl)-6-((S)-3,4-dimethylpiperazin-1-yl)-2,4-difluorophenyl)-6-oxo-1,6-dihydropyridine-3-carboxamide] | 1.14 | 56.6 | 14.4
17 | C[C@@H]1CN(c2ncc(-c3c(F)cc(N4C[C@@H](C)N(C)[C@@H](C)C4)c(NC(=O)c4c[nH]c(=O)cc4C(F)(F)F)c3F)cn2)C[C@@H](C)O1 [Example 86, N-(3-(2-((2R,6R)-2,6-dimethylmorpholino)pyrimidin-5-yl)-2,4-difluoro-6-((3S,5R)-3,4,5-trimethylpiperazin-1-yl)phenyl)-6-oxo-4-(trifluoromethyl)-1,6-dihydropyridine-3-carboxamide] | 0.88 | 10.5 | 13.1
18 | CC(C)OC(=O)N1CC=C(c2c(F)cc(N3C[C@@H](C)N(C)[C@@H](C)C3)c(NC(=O)c3c[nH]c(=O)cc3C(F)(F)F)c2F)C1 [Example 134] | 0.87 | 55.8 | 11.4
